Where two headings read alike, the source gives them in different places.
Experiments:
[1] = cited from earlier work; for tmax: single 37-50 mg/kg dose of an oral solution
[2] = cited from earlier work
Fmr1 KO1 mice = test: Open field hyperactivity (locomotor activity), Fmr1 KO1 mice; assay type: in vivo, mouse; conditions: 0.1 mg/Kg
Description: (§1) Mutant fmr1 knockout (KO) mice recapitulate the Fragile X syndrome (FXS) phenotype and represent a preclinical model for assessment of putative drug treatments. In this study three different mice models of FXS were used: Fmr1 KO1 is the original Fmr1 knockout animal that carries an insertion in exon 5. See, e.g., Bakker C E, et al., The Dutch-Belgian Fragile X Consortium, Fmr1 knockout mice: A model to study fragile X mental retardation. Cell. 1994; 78:23-33 It is a protein null, although Fmr1 mRNA is still present. It is backcrossed to the C57/B16 strain. Subsequently, these mice were bred into different background strains, such as the FVB inbred mouse strain. Fmr1 KO2 is a null allele at Fmr1 generated by deletion of the promoter and first exon of Fmr1. See, Mientjes, E J et al., The generation of a conditional Fmr1 knock out mouse model to study Fmrp function in vivo. Neurobiology of Disease (2006) 21(3): 549-555. It is both protein and mRNA null. Backcrossed to the C57/B16 strain. Genotyping was accomplished using TransnetXY Automated Genotyping (http://www.transnetyx.com/). TRANSNETYX, INC., 8110 Cordova Rd. Suite 119, Cordova, TN 38016, USA.
(§2) The mice were housed in plastic cages (35×30×12 cm), 5 in each and habituated to the animal facilities for at least a week before test. The room temperature (21±2° C.), relative humidity (55±5%), a 12-h light-dark cycle (lights on 7 a.m.-7 p.m.) and air exchange (16 times per h) were automatically controlled. The animals had free access to commercial food pellets and water. Testing was conducted during the light phase. Testing was conducted on Fmr1 knockout mice and their wild-type (WT) littermates. Ten mice per treatment group, 14 weeks of age, were used for behavioral experiments. Experiments were conducted in line with the requirements of the UK Animals (Scientific Procedures) Act, 1986.
(§3) Oral dosing was performed by using 1.5-in. curved, 20-gauge, stainless steel feeding needles with a 2.25-mm ball (Braintree Scientific, Braintree, MA). Each gavage treatment was given in 0.5% methyl cellulose (Methyl Cellulose M0512, Sigma-Aldrich, St Louis, MO) used as vehicle with or without treatment compounds. The same veterinarian, blinded to the treatment groups, performed the procedure, and documented animal reactions to oral gavage. Reactions considered to indicate stress were defined as excessive struggling during gavage or abnormal behavior after gavage (labored breathing, frozen stance, exaggerated jumping, shuddering, and hunched posture).
(§4) For experiments all mice were tested once in the same apparatus. Prior to testing, mice not in the study were placed in the apparatus for some minutes before the experiment. The apparatus was then cleaned with moist and dry tissues before testing each mouse. The aim was to create a low but constant background mouse odor for all experimental subjects. All experiments were conducted with the experimenters blind to genotype and drug treatment during all testing and data analysis. Separate investigators prepared and coded dosing solutions, allocated the mice to the study treatment groups, dosed the animals, and collected the behavioral data. Data were analyzed by one-way analysis of variance (ANOVA) followed by post-hoc comparisons where appropriate using Tukey's Multiple Comparison Test. Data are represented as the mean and standard error of the mean (SEM).
1. […]

Fmr1 KO2 mice = test: Open field hyperactivity (locomotor activity), Fmr1 KO2 mice; assay type: in vivo, mouse; conditions: 0.1 mg/Kg
Description: as §1, §2, §3, §4
1. […]

[3] = system: Fmr1 KO1 transgenic mice in an FVB background; test: Audiogenic seizures (AGS), Fmr1 KO1 mice in FVB background; assay type: in vivo, mouse; conditions: tested 20 minutes after injection, audio stimulus 60 seconds at 124 db
Protocol: 4. Audiogenic Seizures (AGS) are reflex seizures generated by loud noises in genetically predisposed mice. The Fmr1 KO1 mice display audiogenic seizures depending on age and background strain, the Fmr1 KO1 mouse on the FVB background is characterized by an increased AGS susceptibility at all ages and is considered a good animal model for epilepsy. The effect of (S)-3-amino-4-(difluoromethylenyl) cyclopent-1-ene-1-carboxylic acid was tested on AGS Fmr1 KO1 transgenic mice in an FVB background. Observable criteria are: 1. normal behavior, 2. wild running, 3. seizure, and 4. respiratory arrest.
(S)-3-amino-4-(difluoromethylenyl) cyclopent-1-ene-1-carboxylic acid was administered to Fmr1 KO1 mice, males, age 2 months in the following amounts: 0.01 mg/kg, 0.05 mg/kg, and 0.1 mg/kg. Positive controls were administered 2-Methyl-6-(phenylethynyl)pyridine (MPEP), a mGluR5 antagonist, 30 mg/kg by i.p. and tested 20 minutes after injection. Audio stimulus was administered continuously for 60 seconds at 124 db.

[4] = MPEP (positive control) 30 mg/kg i.p.

For `C=CC(N)CCC(=O)O` (racemic) [vigabatrin, (RS)-4-aminohex-5-enoic acid], the “cerebrospinal concentrations as share of the plasma concentration” value ([1]; 6 h after a single oral dose) is listed as 10%, the terminal half-life ([1]; adults) is listed as about 10.5 h and the terminal half-life ([1]; children (10 years-16 years)) is listed as about 9.5 h. The “area under plasma concentration-time curves versus dose” value ([1]; in vivo) was “dose-linear pharmacokinetics”, the protein binding ([1]; in vivo) was “lack of protein binding” and the terminal half-life ([1]; infants (5 months-2 years)) was “about 5.7 hours”. For the same compound, the tmax ([1]; children) was “about 1 hour” and the tmax ([1]; neonates and infants) was “approximately 2.5 hours”.

In the case of `N[C@H]1C[C@@H](C(=O)O)CC1=C(F)F` [(1S,3S)-3-amino-4-(difluoromethylidene)cyclopentane-1-carboxylic acid], the “increase in AUCs with dose” value ([2]; in the dose range 5 mg-500 mg) is given as “greater than proportional increase” and the “Cmax increase with dose” value ([2]; over a range of 5 mg-500 mg) is given as “dose proportional”.

With `N[C@H]1C=C(C(=O)O)CC1=C(F)F` [(S)-3-amino-4-(difluoromethylenyl)cyclopent-1-ene-1-carboxylic acid] the “Effect on open field hyperactivity (FIG. 7)” value (Fmr1 KO1 mice) was “reversed hyperactivity” and the “Effect on open field hyperactivity (FIG. 1)” value (Fmr1 KO2 mice) was “significantly reduced”.

In the case of `Cc1cccc(C#Cc2ccccc2)n1` [MPEP, 2-Methyl-6-(phenylethynyl)pyridine, reference compound], the Seizure ([3]; 30 mg/kg i.p.) is reported as 0/10, the Wild running ([3]; 30 mg/kg i.p.) is reported as 0/10 and the Incidence [3, 4] is reported as 0%. For the same compound, the Respiratory arrest [3, 4] was 0/10.

— US12285397B2, “Use of (s)-3-amino-4-(difluoromethylenyl) cyclopent-1-ene-1-carboxylic acid and related compounds, (1S,3S)-3-amino-4-(difluoromethylidene) cyclopentane-1-carboxylic acid and vigabatrin in the treatment of developmental disorders” (Ovid Therapeutics Inc., priority 2018, dated 2025)
